Assay results published in the NIST ThermoML archive (doi:10.1021/je100991y).
± gives the expanded uncertainty stated by the source.

Tests used:
[1] = refractive index (Na D-line) (dimensionless); settings: 101.33 kPa, Liquid, Standard Abbe refractometry
[2] = refractive index (Na D-line) (dimensionless); wn = mass fraction of the nth substance listed; settings: 95 kPa, Liquid, Standard Abbe refractometry

CCOS(=O)(=O)[O-].CCn1cc[n+](C)c1 [1-ethyl-3-methylimidazolium ethyl sulfate]
refractive index ([1]; 298.2 K): 1.4789 ± 0.0011 | refractive index ([1]; 313.2 K): 1.4745 ± 0.0011

CCOP(=O)([O-])OCC.CCn1cc[n+](C)c1 [1-ethyl-3-methylimidazolium diethyl phosphate]
refractive index ([1]; 298.2 K): 1.4733 ± 0.0006 | refractive index ([1]; 313.2 K): 1.4691 ± 0.0006

CCCCCCCCCCCC [dodecane]
refractive index ([1]; 298.2 K): 1.4196 ± 0.0006 | refractive index ([1]; 313.2 K): 1.4131 ± 0.0006

CCCCCCCCCCCC [dodecane] + Cc1cccc2c1sc1c(C)cccc12
refractive index ([2]; 298.2 K, w2 = 0): 1.4196 ± 0.0006 | refractive index ([2]; 313.2 K, w2 = 0): 1.4131 ± 0.0006

Cc1cccc2c1sc1c(C)cccc12 [4,6-dimethyldibenzo[b,d]thiophene] + CCCCCCCCCCCC
refractive index ([2]; 298.2 K, w1 = 0.0037): 1.4201 ± 0.0006 | refractive index ([2]; 298.2 K, w1 = 0.0062): 1.4206 ± 0.0006 | refractive index ([2]; 298.2 K, w1 = 0.0089): 1.421 ± 0.0006 | refractive index ([2]; 313.2 K, w1 = 0.0037): 1.4137 ± 0.0006 | refractive index ([2]; 313.2 K, w1 = 0.0062): 1.4141 ± 0.0006 | refractive index ([2]; 313.2 K, w1 = 0.0089): 1.4146 ± 0.0006
